Source: US20250049926A1, “PHARMACEUTICAL COMPOSITIONS COMPRISING MODIFIED BETACYCLODEXTRINS” (priority 2021, published 2025)

Assay: Solubility measurement of saturated solutions by HPLC at room temperature (0 h and 24 h)
Assay type: physicochemical
Conditions: buffered water with excipients, pH 4, aqueous with cosolvent or surfactant or cyclodextrin, thermodynamic from solid
Procedure: The vial contents are prepared starting with 2.5 mg of the compound of formula (I). The primary excipient is added followed by any further excipient and then the buffered water to a total volume of 500 μL. All components are mixed in a vortex mixer for ca. 5 minutes. If everything is dissolved an additional 2.5 mg of the compound of formula (I) is added and vortexed again for ca. 5 minutes. This is repeated until a saturated solution (suspension) is obtained.
The solubility in vial 1 is measured immediately as described below.
To measure solubility 400 μl of the suspension are taken and placed in a centrifugation device above a 0.2 μm filter. Centrifugation is performed at 14,000 rpm for 10 minutes and if necessary repeated for additional 10 minutes. The filter is removed from the vial and 100 μL is taken and diluted with 400 μL high-performance liquid chromatography (HPLC) diluent solution (see below) or diluted with 900 μL HPLC diluent solution in the event 5 mg or more of the compound of formula (I) was used. The pH of the solution is measured. A further 100 μL of the vial solution is taken and diluted with 400 μL of HPLC diluent solution or diluted with 900 μL HPLC diluent solution in the event 5 mg or more of the compound of formula (I) was used. The assay of the solution versus control stock solution is measured by HPLC and the solubility is calculated as described below. The HPLC diluent solution is 0.1% trifluoroacetic acid (TFA) in acetonitrile (ACN) and water (1:1 v/v).
All solubility tests are performed at room temperature.
The HPLC method for assessing solubility is performed as follows:
The solubility of the compound of formula (I) is calculated according to the following formula:
[formula] • Solubility=solubility of compound of formula (I) (mg/mL) • A=peak area of the compound of the sample tested • a=value of constant “a” in Linear regression equation y=ax+b • b=value of constant “b” in Linear regression equation y=ax+b • n=dilution time • Formulations for stability assessment are prepared as follows: […]

Which results are given for `COc1cc(N2CCNCC2)ccc1Nc1ncc2c(n1)-n1ccc(C(=O)Nc3c(C)cccc3C)c1CC2` [compound of formula (I)]?
solubility at 0 h (CBS 30 mM pH 4.0, NaCl 3 mg/mL, SBE-beta-CD 40 mg/mL + Kollidon 12 P188 5 mg/mL, pH exp 4.1): 2590 µg/mL; solubility at 24 h (CBS 30 mM pH 4.0, NaCl 3 mg/mL, SBE-beta-CD 40 mg/mL + Kollidon 12 P188 5 mg/mL, pH exp 4.2): 3710 µg/mL; solubility at 0 h (CBS 30 mM pH 4.0, NaCl 3 mg/mL, SBE-beta-CD 40 mg/mL + Na CMC 5 mg/mL, pH exp 4.1): 1710 µg/mL; solubility at 24 h (CBS 30 mM pH 4.0, NaCl 3 mg/mL, SBE-beta-CD 40 mg/mL + Na CMC 5 mg/mL, pH exp n. a.): 2670 µg/mL; solubility at 0 h (CBS 30 mM pH 4.0, NaCl 3 mg/mL, SBE-beta-CD 40 mg/mL + PEG 400 1 mg/mL, pH exp 4.1): 2480 µg/mL; solubility at 24 h (CBS 30 mM pH 4.0, NaCl 3 mg/mL, SBE-beta-CD 40 mg/mL + PEG 400 1 mg/mL, pH exp 4.2): 3730 µg/mL; solubility at 0 h (CBS 30 mM pH 4.0, NaCl 3 mg/mL, SBE-beta-CD 40 mg/mL + PEG 400 5 mg/mL, pH exp 4.1): 2340 µg/mL; solubility at 24 h (CBS 30 mM pH 4.0, NaCl 3 mg/mL, SBE-beta-CD 40 mg/mL + PEG 400 5 mg/mL, pH exp 4.2): 3750 µg/mL; solubility at 0 h (CBS 30 mM pH 4.0, NaCl 3 mg/mL, SBE-beta-CD 40 mg/mL + PEG 400 10 mg/mL, pH exp 4.1): 2590 µg/mL; solubility at 24 h (CBS 30 mM pH 4.0, NaCl 3 mg/mL, SBE-beta-CD 40 mg/mL + PEG 400 10 mg/mL, pH exp 4.2): 3790 µg/mL; solubility at 0 h (CBS 30 mM pH 4.0, NaCl 3 mg/mL, SBE-beta-CD 40 mg/mL + PEG 400 20 mg/mL, pH exp 4.1): 2570 µg/mL; solubility at 24 h (CBS 30 mM pH 4.0, NaCl 3 mg/mL, SBE-beta-CD 40 mg/mL + PEG 400 20 mg/mL, pH exp 4.2): 3810 µg/mL; solubility at 0 h (CBS 30 mM pH 4.0, NaCl 3 mg/mL, SBE-beta-CD 40 mg/mL + PEG 400 30 mg/mL, pH exp 4.1): 2670 µg/mL; solubility at 24 h (CBS 30 mM pH 4.0, NaCl 3 mg/mL, SBE-beta-CD 40 mg/mL + PEG 400 30 mg/mL, pH exp 4.2): 3860 µg/mL; solubility at 0 h (CBS 30 mM pH 4.0, NaCl 3 mg/mL, SBE-beta-CD 40 mg/mL + PEG 4000 5 mg/mL, pH exp 4.1): 2420 µg/mL; solubility at 24 h (CBS 30 mM pH 4.0, NaCl 3 mg/mL, SBE-beta-CD 40 mg/mL + PEG 4000 5 mg/mL, pH exp 4.2): 3670 µg/mL; solubility at 0 h (CBS 30 mM pH 4.0, NaCl 3 mg/mL, SBE-beta-CD 40 mg/mL + Soybean lecithin 10 mg/mL, pH exp 4.1): 2520 µg/mL; solubility at 24 h (CBS 30 mM pH 4.0, NaCl 3 mg/mL, SBE-beta-CD 40 mg/mL + Soybean lecithin 10 mg/mL, pH exp 4.3): 3600 µg/mL; solubility at 0 h (CBS 30 mM pH 4.0, NaCl 3 mg/mL, SBE-beta-CD 40 mg/mL + Tween 80 5 mg/mL, pH exp 4.1): 2950 µg/mL; solubility at 24 h (CBS 30 mM pH 4.0, NaCl 3 mg/mL, SBE-beta-CD 40 mg/mL + Tween 80 5 mg/mL, pH exp 4.2): 4040 µg/mL; solubility at 0 h (CBS 30 mM pH 4.0, NaCl 6 mg/mL, SBE-beta-CD 40 mg/mL + Kollidon 12 PF 2.5 mg/mL, pH exp 4.1): 2370 µg/mL; solubility at 24 h (CBS 30 mM pH 4.0, NaCl 6 mg/mL, SBE-beta-CD 40 mg/mL + Kollidon 12 PF 2.5 mg/mL, pH exp 4.3): 3690 µg/mL; solubility at 0 h (CBS 30 mM pH 4.0, NaCl 6 mg/mL, SBE-beta-CD 40 mg/mL + Kollidon 12 PF 5 mg/mL, pH exp 4.0): 2510 µg/mL; solubility at 24 h (CBS 30 mM pH 4.0, NaCl 6 mg/mL, SBE-beta-CD 40 mg/mL + Kollidon 12 PF 5 mg/mL, pH exp 4.2): 3750 µg/mL; solubility at 0 h (CBS 30 mM pH 4.0, NaCl 6 mg/mL, SBE-beta-CD 40 mg/mL + Kollidon 12 PF 10 mg/mL, pH exp 4.1): 2520 µg/mL; solubility at 24 h (CBS 30 mM pH 4.0, NaCl 6 mg/mL, SBE-beta-CD 40 mg/mL + Kollidon 12 PF 10 mg/mL, pH exp 4.2): 3700 µg/mL; solubility at 0 h (CBS 30 mM pH 4.0, NaCl 6 mg/mL, SBE-beta-CD 40 mg/mL + Propylene glycol 5 mg/mL, pH exp 4.1): 2360 µg/mL; solubility at 24 h (CBS 30 mM pH 4.0, NaCl 6 mg/mL, SBE-beta-CD 40 mg/mL + Propylene glycol 5 mg/mL, pH exp 4.3): 3820 µg/mL
